Measurements as given in paper PMC10452110, “Indole-3-Acetamido-Polyamines as Antimicrobial Agents and Antibiotic Adjuvants” (Biomolecules, 2023).
pIC50: −log10 of the molar value. Like-named read-outs stand apart in the source and are kept apart here.

Columns and labels:
[1] = test system: Cryptococcus neoformans (ATCC 208821); assay: Intrinsic antifungal activity (MIC) against C. neoformans; type: cell-based
Description: (§1) The susceptibility of bacterial strains Staphylococcus aureus (ATCC 25923), Escherichia coli (ATCC 25922) and Pseudomonas aeruginosa (ATCC 27853) to antibiotics and compounds was determined using previously reported protocols. Additional antimicrobial evaluation against MRSA (ATCC 43300), Klebsiella pneumoniae (ATCC 700603), Acinetobacter baumannii (ATCC 19606), Candida albicans (ATCC 90028) and Cryptococcus neoformans (ATCC 208821) was undertaken at the Community for Open Antimicrobial Drug Discovery at The University of Queensland (Australia) according to their standard protocols, as reported previously.

[2] = test system: Klebsiella pneumoniae (ATCC 700603); assay: Intrinsic antimicrobial activity (MIC) against K. pneumoniae; type: cell-based
Description: as §1

Cytotoxicity assay = type: cell-based; details: human; HEK293 cells; mean (n = 2); read-out: Cytotoxicity: concentration of compound at 50% cytotoxicity (IC50)
Description: Cytotoxicity assays were conducted using the protocols previously reported.

[3] = test system: Escherichia coli (ATCC 25922); assay: Intrinsic antimicrobial activity (MIC) against E. coli; type: cell-based
Description: as §1

[4] = test system: Staphylococcus aureus (ATCC 25923); assay: Intrinsic antimicrobial activity (MIC) against S. aureus; type: cell-based
Description: as §1

P. aeruginosa ATCC 27853 = assay: Enhancement of doxycycline action against P. aeruginosa; type: cell-based, Pseudomonas aeruginosa; details: doxycycline at 4.5 µM
Description: (§2) Antibiotic enhancer concentrations were determined using previously reported protocols.

MRSA (ATCC 43300) = assay: Intrinsic antimicrobial activity (MIC) against MRSA; type: cell-based; details: Staphylococcus aureus, MRSA ATCC 43300; mean (n = 2); read-out: MIC MRSA
Description: as §1

human red blood cells = assay: Hemolytic assay; type: cell-based; details: mean (n = 2)
Description: Hemolysis assays were conducted using the protocols previously reported.

[5] = test system: Acinetobacter baumannii (ATCC 19606); assay: Intrinsic antimicrobial activity (MIC) against A. baumannii; type: cell-based
Description: as §1

E. coli ATCC 25922 = assay: Enhancement of erythromycin action against E. coli; type: cell-based, Escherichia coli; details: erythromycin at 10.9 µM
Description: as §2

[6] = test system: Pseudomonas aeruginosa (ATCC 27853); assay: Intrinsic antimicrobial activity (MIC) against P. aeruginosa; type: cell-based
Description: as §1

[7] = test system: Candida albicans (ATCC 90028); assay: Intrinsic antifungal activity (MIC) against C. albicans; type: cell-based
Description: as §1

[8] = ATCC208821, C. neoformans ATCC 208821, mean (n = 2), read-out: MIC C. n
[9] = ATCC700603, K. pneumoniae ATCC 700603, mean (n = 2), read-out: MIC K. p
[10] = ATCC25922, E. coli ATCC 25922, mean (n = 3), read-out: MIC E. c
[11] = ATCC25923, S. aureus ATCC 25923, mean (n = 3), read-out: MIC S. a
[12] = ATCC19606, A. baumannii ATCC 19606, mean (n = 2), read-out: MIC A. b
[13] = ATCC27853, P. aeruginosa ATCC 27853, mean (n = 3), read-out: MIC P. a
[14] = ATCC90028, C. albicans ATCC 90028, mean (n = 2), read-out: MIC C. a

| Structure (SMILES) | MIC [1, 8] [µM] | MIC [2, 9] [µM] | pIC50 (Cytotoxicity assay) | MIC [3, 10] [µM] | MIC [4, 11] [µM] | Dox/P. a fold change (ratio between intrinsic MIC of the test compound and combination MIC) (P. aeruginosa ATCC 27853) [fold] | Dox/P. a: concentration required to restore doxycycline activity (combination MIC) (P. aeruginosa ATCC 27853) [µM] | MIC (MRSA (ATCC 43300)) [µM] | Hemolysis: concentration of compound at 10% hemolytic activity (HC10) (human red blood cells) [µM] | MIC [5, 12] [µM] | Eryth/E. c: concentration required to restore erythromycin activity (combination MIC) (E. coli ATCC 25922) [µM] | MIC [6, 13] [µM] | MIC [7, 14] [µM] | MIC ([1]; ATCC208821, read-out: MIC C. n) [µM] | MIC ([2]; ATCC700603, read-out: MIC K. p) [µM] | MIC ([3]; ATCC25922, read-out: MIC E. c) [µM] | MIC ([4]; ATCC25923, read-out: MIC S. a) [µM] | MIC ([5]; ATCC19606, read-out: MIC A. b) [µM] | MIC ([6]; ATCC27853, read-out: MIC P. a) [µM] | MIC ([7]; ATCC90028, read-out: MIC C. a) [µM] |
| --- | --- | --- | --- | --- | --- | --- | --- | --- | --- | --- | --- | --- | --- | --- | --- | --- | --- | --- | --- | --- |
| O=C(Cc1c[nH]c2ccccc12)NCCCNCCCCCCCNCCCNC(=O)Cc1c[nH]c2ccccc12.O=C(O)C(F)(F)F.O=C(O)C(F)(F)F [Compound 14c, N^1,N^7-Bis(3-(2-(1H-indol-3-yl)acetamido)propyl)heptane-1,7-diaminium 2,2,2-trifluoroacetate] | ≤ 0.32 | > 41 | < 4.39 | > 254 | 15.9 | 4 | 63.5 | ≤ 0.32 | 0.72 | > 41 | > 254 | > 254 | > 41 | – | – | – | – | – | – | – |
| O=C(Cc1c[nH]c2ccccc12)NCCCNCCCCCCCCNCCCNC(=O)Cc1c[nH]c2ccccc12.O=C(O)C(F)(F)F.O=C(O)C(F)(F)F [Compound 14d, N^1,N^8-Bis(3-(2-(1H-indol-3-yl)acetamido)propyl)octane-1,8-diaminium 2,2,2-trifluoroacetate] | ≤ 0.31 | > 40 | < 4.40 | 62.4 | 31.2 | > 1 | 250 | ≤ 0.31 | 15.8 | > 40 | 250 | > 250 | > 40 | – | – | – | – | – | – | – |
| O=C(Cc1c[nH]c2ccccc12)NCCCNCCCCCCCCCCNCCCNC(=O)Cc1c[nH]c2ccccc12.O=C(O)C(F)(F)F.O=C(O)C(F)(F)F [Compound 14e, N^1,N^10-Bis(3-(2-(1H-indol-3-yl)acetamido)propyl)decane-1,10-diaminium 2,2,2-trifluoroacetate] | – | – | < 4.41 | – | – | 4 | 15.1 | ≤ 0.3 | ≤0.30 | – | 15.1 | – | – | ≤ 0.3 | > 39 | 15.1 | 3.77 | > 39 | 60.3 | ≤ 0.3 |
| O=C(Cc1c[nH]c2ccccc12)NCCCNCCCCCCCCCCCCNCCCNC(=O)Cc1c[nH]c2ccccc12.O=C(O)C(F)(F)F.O=C(O)C(F)(F)F [Compound 14f, N^1,N^12-Bis(3-(2-(1H-indol-3-yl)acetamido)propyl)dodecane-1,12-diaminium 2,2,2-trifluoroacetate] | ≤ 0.29 | > 37 | < 4.43 | 29.2 | 3.65 | 4 | 14.6 | ≤ 0.29 | ≤0.29 | > 37 | 14.6 | 58.3 | ≤ 0.29 | – | – | – | – | – | – | – |
| O=C(Cc1c[nH]c2ccc(Br)cc12)NCCCNCCCCCCNCCCNC(=O)Cc1c[nH]c2ccc(Br)cc12.O=C(O)C(F)(F)F.O=C(O)C(F)(F)F [Compound 15b, N^1,N^6-Bis(3-(2-(5-bromo-1H-indol-3-yl)acetamido)propyl)hexane-1,6-diaminium 2,2,2-trifluoroacetate] | < 0.2 | > 34 | < 4.47 | 26.9 | 13.4 | 8 | 26.9 | < 0.2 | >34 | > 34 | 53.7 | 215 | 2.15 | – | – | – | – | – | – | – |
| O=C(Cc1c[nH]c2ccc(Br)cc12)NCCCNCCCCCCCCNCCCNC(=O)Cc1c[nH]c2ccc(Br)cc12.O=C(O)C(F)(F)F.O=C(O)C(F)(F)F [Compound 15d, N^1,N^8-Bis(3-(2-(5-bromo-1H-indol-3-yl)acetamido)propyl)octane-1,8-diaminium 2,2,2-trifluoroacetate] | ≤ 0.26 | > 33 | < 4.48 | 26.1 | 13 | > 4 | 52.2 | ≤ 0.26 | 10.1 | > 33 | 52.2 | > 209 | 2.09 | – | – | – | – | – | – | – |
| O=C(Cc1c[nH]c2ccc(Br)cc12)NCCCNCCCCCCCCCCNCCCNC(=O)Cc1c[nH]c2ccc(Br)cc12.O=C(O)C(F)(F)F.O=C(O)C(F)(F)F [Compound 15e, N^1,N^10-Bis(3-(2-(5-bromo-1H-indol-3-yl)acetamido)propyl)decane-1,10-diaminium 2,2,2-trifluoroacetate] | ≤ 0.25 | > 32 | < 4.49 | 12.7 | 6.33 | 4 | 12.7 | ≤ 0.25 | ≤0.25 | > 32 | 12.7 | 50.7 | ≤ 0.25 | – | – | – | – | – | – | – |
| Cc1cccc2c(CC(=O)NCCCNCCCCCCCNCCCNC(=O)Cc3c[nH]c4c(C)cccc34)c[nH]c12.O=C(O)C(F)(F)F.O=C(O)C(F)(F)F [Compound 20c, N^1,N^7-Bis(3-(2-(7-methyl-1H-indol-3-yl)acetamido)propyl)heptane-1,7-diaminium 2,2,2-trifluoroacetate] | < 0.2 | > 39 | < 4.41 | 245 | 3.83 | > 2 | 123 | < 0.2 | – | > 39 | 123 | > 245 | > 39 | – | – | – | – | – | – | – |
